Measurements taken from patent US20100292214A1, “Compounds with Antiparasitic Activity, Applications thereof to the Treatment of Infectious Diseases Caused by Apicomplexans” (commissariat a l'Energie Atomique, priority 2007, published 2010).
Where a name gives a salt, the structure may show the parent alone. Read-outs that look alike come from different tables or passages of the source.

Key:
[1] = system: asynchronous 3D7 chloroquine-sensitive P. falciparum infected red blood cells; experiment: Labeled hypoxanthine incorporation assay (in vitro anti-malarial activity); format: cell-based; details: Plasmodium falciparum, 3D7, Erythrocyte, read-out: IC50 assessed on Plasmodium Falciparum
[2] = system: Toxoplasma gondii RH-β1 strain; experiment: microbe, parasite or virus in culture; format: cell-based; details: Toxoplasma gondii, read-out: IC50 assessed on Toxoplama Gondii
[3] = 3D7 chloroquine-sensitive strain, infected RBC, 48 h contact, [3H]-hypoxanthine incorporation, two independent experiments in duplicates

| SMILES | IC50 [1, 3] [nM] | IC50 [2] [nM] | IC50 [1] [nM] |
| --- | --- | --- | --- |
| O=C(OCCN(Cc1ccccc1)Cc1ccnc2ccccc12)N1CCC(n2c(=O)[nH]c3ccccc32)CC1 [Compound 131, 2-(benzyl(quinolin-4-ylmethyl)amino)ethyl 4-(2-oxo-2,3-dihydro-1H-benzo[d]imidazol-1-yl)piperidine-1-carboxylate hydrochloride] | 2950 | 1050 |  |
| Cn1c(CN(CCOC(=O)N2CCC(n3c(=O)[nH]c4ccccc43)CC2)Cc2ccccc2)cc2ccccc21 [Compound 132, 2-(benzyl((1-methyl-1H-indol-2-yl)methyl)amino)ethyl 4-(2-oxo-2,3-dihydro-1H-benzo[d]imidazol-1-yl)piperidine-1-carboxylate hydrochloride] | 4200 | 1200 |  |
| C[C@@H](COC(=O)N1CCC(n2c(=O)[nH]c3ccccc32)CC1)N(Cc1ccccc1)Cc1ccnc2ccccc12 [Compound 133, (S)-2-(benzyl(quinolin-4-ylmethyl)amino)propyl 4-(2-oxo-2,3-dihydro-1H-benzo[d]imidazol-1-yl)piperidine-1-carboxylate hydrochloride] | 2550 | 1000 |  |
| O=C(OCCCN(Cc1ccccc1)Cc1ccccn1)N1CCC(n2c(=O)[nH]c3ccccc32)CC1 [Compound 135, 3-(benzyl(pyridin-2-ylmethyl)amino)propyl 4-(2-oxo-2,3-dihydro-1H-benzo[d]imidazol-1-yl)piperidine-1-carboxylate hydrochloride] | 3600 | 2300 |  |
| C[C@@H](COC(=O)N1CCC(n2c(=O)[nH]c3ccccc32)CC1)N(Cc1ccccc1)Cc1cccc(OCc2ccccc2)c1 [Compound 136, (S)-2-(benzyl(3-(benzyloxy)benzyl)amino)propyl 4-(2-oxo-2,3-dihydro-1H-benzo[d]imidazol-1-yl)piperidine-1-carboxylate hydrochloride] | 1600 | 800 |  |
| C[C@@H](COC(=O)N1CCC(n2c(=O)[nH]c3ccccc32)CC1)N(Cc1ccccc1)Cc1cc2ccccc2c2ccccc12 [Compound 137, (S)-2-(benzyl(phenanthren-9-ylmethyl)amino)propyl 4-(2-oxo-2,3-dihydro-1H-benzo[d]imidazol-1-yl)piperidine-1-carboxylate hydrochloride] | 1610 | 700 |  |
| C[C@@H](COC(=O)N1CCC(n2c(=O)[nH]c3ccccc32)CC1)N(Cc1ccccc1)Cc1cccc2ccccc12 [Compound 138, (S)-2-(benzyl(naphthalen-1-ylmethyl)amino)propyl 4-(2-oxo-2,3-dihydro-1H-benzo[d]imidazol-1-yl)piperidine-1-carboxylate hydrochloride] | 2550 | 3750 |  |
| C[C@@H](COC(=O)N1CCC(n2c(=O)[nH]c3ccccc32)CC1)N(Cc1ccccc1)Cc1cccs1 [Compound 139, (S)-2-(benzyl(thiophen-2-ylmethyl)amino)propyl 4-(2-oxo-2,3-dihydro-1H-benzo[d]imidazol-1-yl)piperidine-1-carboxylate hydrochloride] | 3410 | 5000 |  |
| C[C@@H](COC(=O)N1CCC(n2c(=O)[nH]c3ccccc32)CC1)N(Cc1ccccc1)Cc1ccccn1 [Compound 140, (S)-2-(benzyl(pyridin-2-ylmethyl)amino)propyl 4-(2-oxo-2,3-dihydro-1H-benzo[d]imidazol-1-yl)piperidine-1-carboxylate hydrochloride] | 3860 | 1800 |  |
| O=C(OCCCN(Cc1ccccc1)Cc1cccs1)N1CCC(n2c(=O)[nH]c3ccccc32)CC1 [Compound 141, 3-(benzyl(thiophen-2-ylmethyl)amino)propyl 4-(2-oxo-2,3-dihydro-1H-benzo[d]imidazol-1-yl)piperidine-1-carboxylate hydrochloride] | 4170 | 4000 |  |
| O=C(OCCCN(Cc1ccccc1)Cc1cccc(Cl)c1)N1CCC(n2c(=O)[nH]c3ccccc32)CC1 [Compound 142, 3-(benzyl(3-chlorobenzyl)amino)propyl 4-(2-oxo-2,3-dihydro-1H-benzo[d]imidazol-1-yl)piperidine-1-carboxylate hydrochloride] | 2920 | 1200 |  |
| O=C(OCCCN(Cc1ccccc1)Cc1cccc2ccccc12)N1CCC(n2c(=O)[nH]c3ccccc32)CC1 [Compound 144, 3-(benzyl(naphthalen-1-ylmethyl)amino)propyl 4-(2-oxo-2,3-dihydro-1H-benzo[d]imidazol-1-yl)piperidine-1-carboxylate hydrochloride] | 3240 | 2700 |  |
| O=C(OCCCN(Cc1ccccc1)Cc1ccnc2ccccc12)N1CCC(n2c(=O)[nH]c3ccccc32)CC1 [Compound 145, 3-(benzyl(quinolin-4-ylmethyl)amino)propyl 4-(2-oxo-2,3-dihydro-1H-benzo[d]imidazol-1-yl)piperidine-1-carboxylate hydrochloride] | 731 | 3300 |  |
| O=C(OCCCN(Cc1ccccc1)Cc1cccc(Oc2ccccc2)c1)N1CCC(n2c(=O)[nH]c3ccccc32)CC1 [Compound 146, 3-(benzyl(3-phenoxybenzyl)amino)propyl 4-(2-oxo-2,3-dihydro-1H-benzo[d]imidazol-1-yl)piperidine-1-carboxylate hydrochloride] | 1960 | 1500 |  |
| COc1cccc(CN(CCCOC(=O)N2CCC(n3c(=O)[nH]c4ccccc43)CC2)Cc2ccccc2)c1 [Compound 149, 3-(benzyl(3-methoxybenzyl)amino)propyl 4-(2-oxo-2,3-dihydro-1H-benzo[d]imidazol-1-yl)piperidine-1-carboxylate hydrochloride] | 588 | 3500 |  |
| O=C(OCCN(Cc1ccccc1)Cc1ccc(Cl)cc1)N1CCC(n2c(=O)[nH]c3ccccc32)CC1 [Compound 150, 2-(benzyl(4-chlorobenzyl)amino)ethyl 4-(2-oxo-2,3-dihydro-1H-benzo[d]imidazol-1-yl)piperidine-1-carboxylate] | 2590 | 1500 |  |
| O=C(OC[C@H](Cc1ccccc1)N(Cc1ccccc1)Cc1ccccc1)N1CCC(Nc2ccccc2)CC1 [Compound 152, (S)-2-(dibenzylamino)-3-phenylpropyl 4-(phenylamino)piperidine-1-carboxylate] |  | 3800 | 922 |
| C[C@@H](COC(=O)N1CCC(n2c(-c3ccccc3)nc3ccccc32)CC1)N(Cc1ccccc1)Cc1ccccc1 [Compound 153, (S)-2-(dibenzylamino)propyl 4-(2-phenyl-1H-benzo[d]imidazol-1-yl)piperidine-1-carboxylate] | 2330 | 3750 |  |
| C[C@@H](COC(=O)N1CCC(N(c2ccccc2)S(=O)(=O)c2ccc(F)cc2)CC1)N(Cc1ccccc1)Cc1ccccc1 [Compound 155, (S)-2-(dibenzylamino)propyl 4-(N-phenyl-4-fluorophenylsulfonamido)piperidine-1-carboxylate] | 617 | 800 |  |
| COc1ccc(S(=O)(=O)N(c2ccccc2)C2CCN(C(=O)OC[C@H](C)N(Cc3ccccc3)Cc3ccccc3)CC2)cc1 [Compound 156, (S)-2-(dibenzylamino)propyl 4-(N-phenyl-4-methoxyphenylsulfonamido)piperidine-1-carboxylate] | 783 | 4000 |  |
